{
  "source": "patent US9539239B1",
  "about": "“Compositions and methods for treatment of neurodegenerative disease” (priority 2010, dated 2017)",
  "molecules": {"B1": {"name": "FLT3 ligand: RTK ligand; ligand of the receptor tyrosine kinase FLT3 (protein, UniProt P49771 27-235, looked up)", "Fms-related tyrosine kinase 3 …": "TQDCSFQHSPISSDFAVKIRELSDYLLQDYPVTVASNLQDEELCGGLWRLVLAQRWMERLKTVAGSKMQGLLERVNTEIHFVTKCAFQPPPSCLRFVQTNISRLLQETSEQLVALKPWITRQNFSRCLELQCQPDSSTLPPPWSPRPLEATAPTAPQPPLLLLLLLPVGLLLLAAAWCLHWQRTRRRTPRPGEQVPPVPSPQDLLLVEH"}},
  "data": [
    {"test_system": "retinal ganglion cells (RGCs)", "test": "RGC survival in primary retinal ganglion cell culture (high-content screening)", "format": "cell-based, mouse and rat", "conditions": "potency relative to sunitinib; baseline culture with 2.5 μM forskolin", "experimental": "(§1) In this Example, certain compounds were administered to retinal ganglion cells (RGCs) in cell culture to determine the effects of the compounds on neuronal count and neurite growth.\nWe established a robust high-content screening system combining the immunopanning- or other immunobead-based purification of primary mouse and rat RGCs and automated fluorescence-based imaging analysis (see, e.g., U.S. Patent Publication No. 2007/0185069, incorporated herein by reference). To enhance the assay sensitivity, the culture condition is defined to support a baseline level of RGC viability (20˜60% surviving RGCs after three days in culture) and neurite growth by 2.5 μM forskolin. […]", "values": [
      {"molecule": "CN(C)C(=O)c1ccc2c(c1)/C(=C/c1cc3c([nH]1)CC(C)(C)CC3=O)C(=O)N2", "note": "[Example 15]", "RGC Survival Activity": "** (approximately 40-80% as potent as sunitinib)"},
      {"molecule": "CCCCN(C)C(=O)c1ccc2c(c1)/C(=C/c1[nH]c3c(c1C)C(=O)C(C)(C)CC3)C(=O)N2", "note": "[Example 11]", "RGC Survival Activity": "** (approximately 40-80% as potent as sunitinib)"},
      {"molecule": "Cc1c(/C=C2\\C(=O)Nc3ccc(C(=O)N4CCCC4)cc32)[nH]c2c1C(=O)C(C)(C)CC2", "note": "[Example 13]", "RGC Survival Activity": "*** (at least approximately 80% as potent as sunitinib)"},
      {"molecule": "Cc1c(/C=C2\\C(=O)Nc3ccc(C(=O)N(C)C)cc32)[nH]c2c1CC(C)(C)CC2", "note": "[Example 8]", "RGC Survival Activity": "** (approximately 40-80% as potent as sunitinib)"},
      {"molecule": "CC[S+]([O-])c1ccc2c(c1)/C(=C/c1cc3c([nH]1)CCCC3)C(=O)N2", "note": "(centres unmarked) [Example 7]", "RGC Survival Activity": "*** (at least approximately 80% as potent as sunitinib)"},
      {"molecule": "C[S+]([O-])c1ccc2c(c1)/C(=C/c1cc3c([nH]1)CC(C)(C)CC3=O)C(=O)N2", "note": "(centres unmarked) [Example 2]", "RGC Survival Activity": "*** (at least approximately 80% as potent as sunitinib)"},
      {"molecule": "CCN(CC)CCNC(=O)c1c(C)[nH]c(/C=C2\\C(=O)Nc3ccc(C(=O)N(C)OC)cc32)c1C", "note": "[Example 24]", "RGC Survival Activity": "*** (at least approximately 80% as potent as sunitinib)"},
      {"molecule": "CCN(CC)CCNC(=O)c1c(C)[nH]c(/C=C2\\C(=O)Nc3ccc([S+](C)[O-])cc32)c1C", "note": "(centres unmarked) [Example 18]", "RGC Survival Activity": "*** (at least approximately 80% as potent as sunitinib)"},
      {"molecule": "C[S+]([O-])c1ccc2c(c1)/C(=C/c1cc3c([nH]1)CCCC3)C(=O)N2", "note": "(centres unmarked) [Example 6]", "RGC Survival Activity": "*** (at least approximately 80% as potent as sunitinib)"},
      {"molecule": "CON(C)C(=O)c1ccc2c(c1)/C(=C/c1[nH]c3c(c1C)C(=O)C(C)(C)CC3)C(=O)N2", "note": "[Example 9]", "RGC Survival Activity": "*** (at least approximately 80% as potent as sunitinib)"},
      {"molecule": "Cc1[nH]c(/C=C2\\C(=O)Nc3ccc([S+](C)[O-])cc32)c(C)c1C(=O)N1CCOCC1", "note": "(centres unmarked)", "RGC Survival Activity": "** (approximately 40-80% as potent as sunitinib)"},
      {"molecule": "CCN(C)C(=O)c1ccc2c(c1)/C(=C/c1[nH]c3c(c1C)C(=O)C(C)(C)CC3)C(=O)N2", "note": "[Example 10]", "RGC Survival Activity": "*** (at least approximately 80% as potent as sunitinib)"},
      {"molecule": "Cc1[nH]c(/C=C2\\C(=O)Nc3ccc([S+](C)[O-])cc32)c(C)c1C(=O)N1CCN(C)CC1", "note": "(centres unmarked)", "RGC Survival Activity": "* (approximately 10-40% as potent as sunitinib)"},
      {"molecule": "C[S+]([O-])c1ccc2c(c1)/C(=C/c1cc3c([nH]1)CCCC3=O)C(=O)N2", "note": "(centres unmarked) [Example 3]", "RGC Survival Activity": "*** (at least approximately 80% as potent as sunitinib)"},
      {"molecule": "CCN(CC)CCNC(=O)c1c(C)[nH]c(/C=C2\\C(=O)Nc3ccc([S+](C)[O-])cc32)c1C", "note": "(centres unmarked) [Example 17]", "RGC Survival Activity": "*** (at least approximately 80% as potent as sunitinib)"},
      {"molecule": "Cc1c(/C=C2\\C(=O)Nc3ccc(C(=O)N(C)C)cc32)[nH]c2c1C(=O)C(C)(C)CC2", "note": "[Example 16]", "RGC Survival Activity": "*** (at least approximately 80% as potent as sunitinib)"},
      {"molecule": "Cc1[nH]c(/C=C2\\C(=O)Nc3ccc(C(=O)N(C)C)cc32)c(C)c1C(=O)NCCN1CCCC1", "note": "[Example 25]", "RGC Survival Activity": "*** (at least approximately 80% as potent as sunitinib)"},
      {"molecule": "CCN(CC)CCNC(=O)c1c(C)[nH]c(/C=C2\\C(=O)Nc3ccc([S+]([O-])CC)cc32)c1C", "note": "(centres unmarked) [Example 19]", "RGC Survival Activity": "*** (at least approximately 80% as potent as sunitinib)"},
      {"molecule": "CCN(CC)CCNC(=O)c1c(C)[nH]c(/C=C2\\C(=O)Nc3ccc(C(=O)N(C)C)cc32)c1C", "note": "[Example 26]", "RGC Survival Activity": "*** (at least approximately 80% as potent as sunitinib)"},
      {"molecule": "Cc1c(/C=C2\\C(=O)Nc3ccc(C(=O)N4CCCCCC4)cc32)[nH]c2c1C(=O)C(C)(C)CC2", "note": "[Example 12]", "RGC Survival Activity": "** (approximately 40-80% as potent as sunitinib)"},
      {"molecule": "Cc1c([S+](C)[O-])ccc2c1/C(=C/c1cc3c([nH]1)CCCC3)C(=O)N2", "note": "(centres unmarked) [Example 5]", "RGC Survival Activity": "* (approximately 10-40% as potent as sunitinib)"},
      {"molecule": "CN(C)C(=O)c1ccc2c(c1)/C(=C/c1cc3c([nH]1)CCCC3=O)C(=O)N2", "note": "[Example 14]", "RGC Survival Activity": "*** (at least approximately 80% as potent as sunitinib)"},
      {"molecule": "CCN(CC)CCNC(=O)c1c(C)[nH]c(/C=C2\\C(=O)Nc3ccc(C(=O)N4CCCC4)cc32)c1C", "note": "[Example 23]", "RGC Survival Activity": "*** (at least approximately 80% as potent as sunitinib)"}
    ]},
    {"test_system": "retinal ganglion cells (RGCs)", "test": "RGC neurite growth in primary retinal ganglion cell culture (high-content screening)", "format": "cell-based, mouse and rat", "conditions": "potency relative to sunitinib; baseline culture with 2.5 μM forskolin", "experimental": "as §1\nWe established a robust high-content screening system combining the immunopanning- or other immunobead-based purification of primary mouse and rat RGCs and automated fluorescence-based imaging analysis (see, e.g., U.S. Patent Publication No. 2007/0185069, incorporated herein by reference). To enhance the assay sensitivity, the culture condition is defined to support a baseline level of RGC viability (20˜60% surviving RGCs after three days in culture) and neurite growth by 2.5 μM forskolin.\nIn addition, certain tested compounds stimulated RGC neurite growth.", "values": [
      {"molecule": "CCN(CC)CCNC(=O)c1c(C)[nH]c(/C=C2\\C(=O)Nc3ccc([S+](C)[O-])cc32)c1C", "note": "(centres unmarked) [Example 18]", "Neurite Promotion": "*** (at least approximately 80% as potent as sunitinib)"},
      {"molecule": "CCN(CC)CCNC(=O)c1c(C)[nH]c(/C=C2\\C(=O)Nc3ccc([S+](C)[O-])cc32)c1C", "note": "(centres unmarked) [Example 17]", "Neurite Promotion": "*** (at least approximately 80% as potent as sunitinib)"},
      {"molecule": "Cc1c([S+](C)[O-])ccc2c1/C(=C/c1cc3c([nH]1)CCCC3)C(=O)N2", "note": "(centres unmarked) [Example 5]", "Neurite Promotion": "** (approximately 40-80% as potent as sunitinib)"}
    ]},
    {"test_system": "not given", "test": "not given", "conditions": "cited from earlier work", "units": {"EC50": "ng/mL"}, "values": [
      {"molecule": "B1", "EC50": 4}
    ]},
    {"test_system": "RGC", "test": "Effect of FLT3 ligand on RGC survival", "format": "cell-based", "conditions": "4 ng/ml (its EC50)", "values": [
      {"molecule": "B1", "reduction of RGC survival": "does not do so"}
    ]},
    {"test_system": "RGC", "test": "Effect of FLT3 ligand on RGC survival", "format": "cell-based", "conditions": "16 ng/ml, four times its EC50", "units": {"reduction of RGC survival": "%"}, "values": [
      {"molecule": "B1", "reduction of RGC survival": 38.3}
    ]}
  ]
}
